Test results taken from US20020136744A1, “Sustained release drug dispersion delivery device” (Merck & Co., Inc., priority 1999, published 2002).
In brackets after ≈: the same amount, converted by molar mass.

Columns and labels:
[1] = pH-dependent solubility of the beneficial agent; format: physicochemical
Method: The formulation of the instant invention was prepared using 1-(3-chlorophenyl)-4-[1-(4-cyanobenzyl)-5-imidazolyl methyl]-2-piperazinone is used as the beneficial agent. The solubility of the beneficial agent decreases from about 1 g/mL at pH 1 to about 70 μg/mL at pH 7, with the solubility cliff occurring at about pH 3.5.

[2] = in vitro release of the drug from the tablets, USP Apparatus II; format: physicochemical; conditions: for release rate / release mechanism: without a pH modulator
Method: The in vitro release of the drug from the tablets prepared as above was determined using USP Apparatus II, paddle speed 75 rpm, at 37° C. in 900 ml of dissolution media with pH values 1.2, 1.7 and 6.8. The pH 1.2 and 1.7 media consisted of 0.1N HCl solution adjusted to the appropriate pH by the addition of sodium hydroxide. The pH 6.8 medium consisted of 0.7% sodium dodecyl sulfate in 10 mM phosphate buffer.

solubility cliff (pH at which it occurs) [1]: ~3.5 pH
solubility (in words) ([1]; low pH levels (less than about 2)): very soluble
solubility (in words) ([1]; near neutral pH levels (greater than about 5)): practically insoluble
solubility ([1]; pH 1, simulated gastric fluid): ~1000 mg/mL (≈ 2460 mM)
solubility ([1]; pH 7, aqueous buffer): ~0.07 mg/mL (≈ 0.172 mM)
release rate / release mechanism ([2]; pH about 1.2 (FIG. 1)): dominated by dissolution and diffusion
Compound: N#Cc1ccc(Cn2cncc2CN2CCN(c3cccc(Cl)c3)C(=O)C2)cc1 [1-(3-chlorophenyl)-4-[1-(4-cyanobenzyl)-5-imidazolylmethyl]-2-piperazinone]
release rate ([2]; with a pH modulator, over a range of pH levels (FIG. 2)): relatively similar over a range of pH levels
release rate / release mechanism ([2]; media pH about 2.2 to about 6.8 (FIG. 1)): controlled by the gel extrusion mechanism
release rate / release mechanism ([2]; pH about 1.7 (FIG. 1)): both the dissolution/diffusion and gel extrusion mechanisms are repressed
